Data published in patent US20230255906A1, “Targeting Serpin B9 in Cancer” (The Brigham and Women`s Hospital, Inc., priority 2020, published 2023).

How the values were obtained:
LAMP1 = LAMP1 / lysosome fluorescence micrographs; assay type: cell-based
Excerpt: FIG. 4H. […] DAPI was used to counterstain the cell nuclei. Scale bar: 10 μm.
Lysosomes have a pH of 4 and are the most acidic compartment within cells. Therefore, it was hypothesized that lysosomes contain an environment that is conducive for the binding between the compound of Formula (III) and Sb9. Both Sb9 and GrB were co-localized in the lysosomes of B16 melanoma cells (FIG. 4F).

MBP = MBP (Escherichia coli, UniProt P0AEX9); assay: SPR negative control channel; assay type: binding
Experimental: FIG. 4B. Sensorgrams of compounds 3,4-dihydroxybenzoic acid (top), 3-oxo-1-indancarboxylic acid (middle), and the compound of Formula (III) (bottom) show the binding of 3,4-dihydroxybenzoic acid and the compound of Formula (III) to Sb9 (top), but not to MBP (bottom) by Surface Plasmon Resonance (SPR).
All assays were run at 25° C. on a BiOptix 404pi. An NTA biosensor chip was used in this study to pre-concentrate 3 μM MBP-Sb9 via an N-terminal His-tag. MBP-Sb9 was covalently immobilized with EDC/NHS in 20 mM HEPES pH 8.0, 150 mM NaCl, 0.05% Tween-20, 5 mM β-ME to 10,000 to 15,000 RUs. MBP was similarly immobilized on a separate channel as a negative control.

Sb9-GrB complex = biological target: T1, Sb9-GrB complex (Mus musculus, UniProt F7A2V8); assay: Western blot of Sb9-GrB complex in B16 cells; assay type: cell-based; conditions: 50 μM, 200 μM, 600 μM, concentration-dependent
T1 construct: endogenous in cells
Experimental: FIG. 4G. […] Sb9-GrB complex (com), unbound Sb9 (mono), and complex degradation products or cleaved Sb9 (deg) are indicated by arrows. GAPDH was used as a loading control for protein normalization.
Lysates of cells and tissues were measured using the Bradford assay. Equal amounts of protein were separated by SDS-PAGE and transferred to a PVDF membrane. The membranes were immunoblotted with the following specific antibodies: anti-rabbit IgG-HRP (Sigma-Aldrich), anti-rat IgG-HRP (Sigma-Aldrich), and anti-GAPDH (Sigma-Aldrich), using standard protocols. The blots were developed with West Dura chemiluminescent substrates using a Bio-Rad ChemiDoc imaging system.

[1] = In vivo toxicity (CBC, serum chemistry, H&E); set-up: species or system mouse; conditions: 300 μg i.p. twice a day for 14 days
Experimental: To further assess the in vivo toxicity of the compound of Formula (III), 300 μg of the compound of Formula (III) was administered twice a day intraperitoneally for 14 days.

MBP-Sb9 = biological target: T2, MBP-Sb9 (Homo sapiens, UniProt P50453); assay: Surface plasmon resonance (SPR) binding; conditions: 25° C., 1:1 Langmuir model
T2 construct: made in house
Experimental: Surface plasmon resonance (SPR) measures change in refractive index on a biosensor surface, as analytic mass accumulates via binding to an attached ligand. This allows derivation of affinity (KD) from measured kinetic rates of association (ka) and dissociation (kd). All assays were run at 25° C. on a BiOptix 404pi. An NTA biosensor chip was used in this study to pre-concentrate 3 μM MBP-Sb9 via an N-terminal His-tag. MBP-Sb9 was covalently immobilized with EDC/NHS in 20 mM HEPES pH 8.0, 150 mM NaCl, 0.05% Tween-20, 5 mM β-ME to 10,000 to 15,000 RUs. MBP was similarly immobilized on a separate channel as a negative control. Compounds were injected as 3-fold serial dilutions in duplicate starting at 200 μM. Injections were done at 50 μL/min for 60 seconds, followed by a 120 second dissociation in 20 mM HEPES, pH 8.0, 150 mM NaCl, 0.05% Tween-20, 5 mM j-ME, 1% DMSO. A series of five DMSO standards between 0.5% and 1.5% were included with each run to correct for bulk refractive index. Sensorgrams were analyzed using Scrubber 2 software with a double reference and fit to a 1:1 Langmuir model to determine the interaction parameters KD, ka, and kd.

[2] = system: RENCA mouse kidney tumors; assay: RENCA kidney tumor model in BALB/c mice; assay type: in vivo; conditions: 300 μg i.p. bid for 21 days
Excerpt: FIGS. 6N-6O. […] Data are expressed as means±SEM. *P<0.05, **P<0.01 (Student's t-test). Mean survival time (MST) is increased in mice treated with the compound of Formula (III) as compared to Control group (FIG. 6O).
(§1) Furthermore, similar antitumor effects and increased MST using the compound of Formula (III) in two other in vivo tumor models were observed: Renca renal cell carcinoma and LLC1 lung cancer (FIGS. 6M-6Q). Thus, inhibition of Sb9 by the compound of Formula (III) has potent anti-tumor effects in a broad spectrum of tumors, including melanomas as well as breast, lung, and kidney tumors.

LLC1 mouse lung tumors = assay: LLC1 lung tumor model in C57BL/6 mice; assay type: in vivo; conditions: 300 μg i.p. bid for 21 days
Excerpt: FIGS. 6P-6Q. […] Data are expressed as means±SEM. *P<0.05 (Student's t-test). Mean survival time (MST) is increased in mice treated with the compound of Formula (III) as compared to Control group (FIG. 6Q).
as §1

GrB = assay: Grantoxilux assay of GrB activity in B16 cells; assay type: cell-based, mouse; conditions: 200 μM, 24 h
[3] = system: B16-Sb9 KO melanoma cells; assay: Apoptosis by flow cytometry (Annexin-V, viability dye) in Sb9 knockout cells; assay type: cell-based, mouse; conditions: 50 μM, 100 μM, and 200 μM
Experimental: FIG. 5M. […] Cells treated with PBS alone were used as a negative control. Data are expressed as means±SD from three independent experiments.
To evaluate the off-target effects of the compound of Formula (III) to Sb9 proteins, the B16-Sb9 KO melanoma cells were treated with various concentrations of the compound of Formula (III). […] Furthermore, the antitumor effects of the compound of Formula (III) on the Sb9 KO mice bearing B16-Sb9 KO tumors, as compared to control group were not observed (FIG. 5N).

T1 sequence (F7A2V8 1-374, one chain of several): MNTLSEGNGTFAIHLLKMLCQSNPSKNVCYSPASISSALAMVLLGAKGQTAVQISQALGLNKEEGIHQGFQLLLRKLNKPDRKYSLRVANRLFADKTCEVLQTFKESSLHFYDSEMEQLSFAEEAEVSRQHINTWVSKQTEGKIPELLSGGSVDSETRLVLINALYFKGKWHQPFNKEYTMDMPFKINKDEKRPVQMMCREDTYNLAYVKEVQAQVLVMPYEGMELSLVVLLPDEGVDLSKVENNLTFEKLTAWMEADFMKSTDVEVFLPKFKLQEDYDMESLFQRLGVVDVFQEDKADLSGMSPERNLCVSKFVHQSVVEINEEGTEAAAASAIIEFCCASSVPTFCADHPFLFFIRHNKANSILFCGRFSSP
T2 sequence (P50453 whole entry): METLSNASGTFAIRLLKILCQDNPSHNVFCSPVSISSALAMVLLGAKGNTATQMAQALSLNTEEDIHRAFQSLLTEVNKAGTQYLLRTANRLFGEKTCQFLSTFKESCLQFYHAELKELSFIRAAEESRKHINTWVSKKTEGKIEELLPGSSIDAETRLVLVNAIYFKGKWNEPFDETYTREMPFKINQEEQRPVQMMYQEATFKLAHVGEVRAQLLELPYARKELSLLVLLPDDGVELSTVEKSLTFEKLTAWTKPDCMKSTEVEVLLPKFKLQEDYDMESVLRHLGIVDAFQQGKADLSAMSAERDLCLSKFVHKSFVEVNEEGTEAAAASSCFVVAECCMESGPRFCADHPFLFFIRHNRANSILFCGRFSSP

## O=C(O)c1ccc2ncoc2c1 [Formula (III), 1,3-benzoxazole-6-carboxylic acid]
LAMP1
  LAMP1 expression and lysosome areas: significantly increased the LAMP1 expressions
MBP
  binding to MBP (negative control): not to MBP
Sb9-GrB complex
  expression of the Sb9-GrB complex: reduced the expression of the Sb9-GrB complex
[1]
  CBC: WBC, HGB, and PLT vs control: no significant difference
  serum AST, ALT, CRE, and ALB levels vs control: similar
  toxicity to liver, kidney, lung, and heart tissues (H&E staining): no toxicity
MBP-Sb9
  Kd: 273 µM
[2]
  Mean survival time (MST) vs Control: increased
[2]; male BALB/c mice
  tumor growth vs control: significantly slower growth
LLC1 mouse lung tumors
  Mean survival time (MST) vs Control: increased
LLC1 mouse lung tumors; C57BL/6-WT mice
  tumor growth vs control: significantly slower growth
GrB
  activity of GrB: increased activity of GrB
[3]
  additional apoptosis in Sb9 knockout cells (off-target): No additional apoptotic effect
